Measurements as given in patent US20070259056A1, “Anti-Tumour Terpene Compounds” (COMPTON DEVELOPMENTS LTD., priority 2003, published 2007).
Read-outs that look alike come from different tables or passages of the source.

Legend:
[1] = system: S180 murine sarcoma cells; assay: MTT assay, cytotoxicity on S180 cells; details: S180 and human tumour cells in culture
Procedure: Two transformed cell lines were chosen for MTT analysis, S180 murine sarcoma cells and HT1080 human fibrosarcoma cells. Cells were seeded in 96-well microliter plates at a density of 2×10^5 cells/ml and incubated at 37° C. and 5% CO2 for 24 hours prior to treatment. 200 ul PBS was added to the wells on the outer edges of the plate to reduce evaporation loss from the wells containing cells.
Serial dilutions were carried out to enable a range of progressively more dilute concentrations of extract to be tested. The same procedure was followed to make solutions of staurosporine and ethanol of the same concentrations. Staurosporine, an agent with well-established cytotoxic properties, was incorporated into the study to provide a benchmark to compare the cytotoxicity of the extracts against.
Careful mixing with a pipette ensured thorough dissolution. […] This was done immediately after addition of DMSO.
The method was also employed to test the impact of identified components of the Haddi extracts. Thus, trans-β-Ocimene and γ-Bisabolene both major components of the Haddi extract were tested using the MTT assay to estimate their impact on tumour cell cytotoxicity and viability, see FIGS. 7 to 10.

[2] = system: A375 cells (a human skin melanoma cell line); assay: MTT assay, cytotoxicity on A375 cells; assay type: cell-based; details: for % Cytoxicity: A375 cells; for concentration inducing / required to initiate cell death: A375 tumour cells
[3] = system: mixed cultures containing fibroblast cells and tumour cells; assay: Mixed tissue culture of fibroblast cells and tumour cells; assay type: cell-based; details: 12 hrs
Procedure: In addition when mixed cultures containing fibroblast cells and tumour cells are treated, the normal fibroblasts appear to survive while the tumour cells go into apoptosis.
The results of such an experiment are shown in FIG. 14, wherein a mixed tissue culture has been treated for 12 hrs with 5 uM Bisabolene. […] In FIG. 15 a mixed tissue culture has been treated for 12 hrs with 100 uM Ocimene.

mammals = details: cited from earlier work
[4] = system: MM6 cells (monocyte leukaemic cell line); details: for % Cytoxicity: MM6 cells; for concentration as low as which high cell death is induced: MM6 tumour cells
Description: The MTT assay is a powerful, quantitative and highly reliable colourimetric assay that measures the viability of a cell population. […] The amount of formazan produced is directly proportional to the number of viable cells in the test population. The formazan product formed can be dissolved in dimethyl sulfoxide (DMSO), which enables quantification of the product to be obtained via spectrophotometry. A population containing largely viable cells will produce high levels of the formazan product and will therefore give a deep purple solution upon dissolution with DMSO, while a cell population that has mostly dead cells will produce a colourless solution. The amount of light absorbed (at a wavelength of 575 nm) can be converted to % cytotoxicity by using the following calculation: [control absorption−test absorption]X 100=% cytotoxicity control absorption Experimental Protocol
100 ul of each concentration of each extract/control were added to 3 separate wells in a labeled microtitre plate. In the untreated control wells 100 ul of medium was added—all wells having a total final volume of 200 ul. 3 identical replicates of this were carried out for testing after 24, 48 and 72 hours. All plates were incubated at 37° C. and 5% CO2 until reading.
After the required length of time (i.e. 24, 48 or 72 hours) 20 ul MTT solution (5 mg/ml) was added to each well (excluding wells containing only PBS). Plates were then returned to the incubator (under the same conditions) for a further 4 hours. MTT is photosensitive so all plates were covered in foil to minimise exposure to light. After 4 hours all medium from the wells was pipetted out (care was taken to avoid disturbing the formazan crystals) and 200 ul DMSO was added to each well. Careful mixing with a pipette ensured thorough dissolution. All plates were then read on a spectrophotometer for absorption of light at 575 nm. This was done immediately after addition of DMSO.

[5] = system: HT1080 human fibrosarcoma cells; assay: Annexin V bioassay of apoptosis in HT1080 cells; assay type: cell-based; details: 5 uM, 12 hours
Description: The Annexin V bioassay is used to distinguish between cells dying via the apoptotic route and cells dying by necrosis. Knowing how ocimene and bisabolene cause cell death is crucial. […] This is because necrotic cells burst and release their content into the surroundings, thus causing an inflammatory response that is potentially harmful to neighbouring, non-target cells.
The Annexin V bioassay utilises an early change in the plasma membrane of apoptotic cells during which phosphatidylserine (PS), a membrane bound phospholipid, is translocated from the inner surface of the membrane bi-layer to the outer surface—thus bringing the PS into contact with the environment. This change occurs before membrane bleeding and far earlier than DNA fragmentation thus making it an ideal marker for early apoptotic cells. Annexin V is a Ca^2+-dependent phospholipid binding protein with a high affinity for PS. In this study the Annexin V was coupled to a fluorescent marker called FITC, to generate an Annexin V-FITC conjugate. FITC fluoresces with an intense green/yellow colour when viewed via fluorescent microscopy. Thus, early apoptotic cells will bind Annexin V-FITC on their plasma membranes and fluoresce- green/yellow, whereas late apoptotic cells will fluoresce green/yellow in the cytoplasm as well as at the membrane.
To identify necrotic cells another dying agent, propidium iodide (PI) is used. […]

## C=C/C(C)=C/CC=C(C)C [trans-β-Ocimene, trans-β-ocimene]
[1]; concentrations above 200 mM
  tumour cell death: ~100%
[2]; 46 μM, 24 hours
  % Cytoxicity: 7%
[2]; 46 μM, 48 hours
  % Cytoxicity: −2%
[2]; 46 μM, 72 hours
  % Cytoxicity: −33%
[2]; 92 μM, 24 hours
  % Cytoxicity: −11%
[2]; 92 μM, 48 hours
  % Cytoxicity: −25%
[2]; 92 μM, 72 hours
  % Cytoxicity: −31%
[2]; 184 μM, 24 hours
  % Cytoxicity: 7%
[2]; 184 μM, 48 hours
  % Cytoxicity: 8%
[2]; 184 μM, 72 hours
  % Cytoxicity: −10%
[2]; 368 μM, 24 hours
  % Cytoxicity: 29%
[2]; 368 μM, 48 hours
  % Cytoxicity: 35%
[2]; 368 μM, 72 hours
  % Cytoxicity: 31%
[3]; 100 uM
  survival of fibrocytes versus tumour cells in mixed culture: fibrocytes spread out and survive whilst tumour cells round off to form apoptotic bodies
mammals
  toxicity to mammals: non toxic to mammals

## CC(C)=CCC[C@](C)(O)C1CC=C(C)CC1 (stereo partly drawn) [α-Bisabolol, α-bisabolol]
[2]; 28 μM, 24 hours
  % Cytoxicity: −2%
[2]; 28 μM, 72 hours
  % Cytoxicity: 1%
[2]; 56 μM, 24 hours
  % Cytoxicity: −27%
[2]; 56 μM, 72 hours
  % Cytoxicity: 10%
[2]; 112 μM, 24 hours
  % Cytoxicity: 10%
[2]; 112 μM, 72 hours
  % Cytoxicity: 26%
[2]; 225 μM, 24 hours
  % Cytoxicity: 31%
[2]; 225 μM, 72 hours
  % Cytoxicity: 41%
[2]
  concentration inducing / required to initiate cell death: 225 µM
[4]; 0.13 μM, 24 hours
  % Cytoxicity: 48%
[4]; 0.13 μM, 72 hours
  % Cytoxicity: 53%
[4]; 0.25 μM, 24 hours
  % Cytoxicity: 48%
[4]; 0.25 μM, 72 hours
  % Cytoxicity: 54%
[4]; 2.5 μM, 24 hours
  % Cytoxicity: 46%
[4]; 2.5 μM, 72 hours
  % Cytoxicity: 51%
[4]; 10 μM, 24 hours
  % Cytoxicity: 33%
[4]; 10 μM, 72 hours
  % Cytoxicity: 49%
[4]
  concentration as low as which high cell death is induced: 0.13 µM

## CC(C)=CCC/C(C)=C1/CC=C(C)CC1 [γ-Bisabolene, γ-bisabolene]
[1]
  concentration at which potent: around 50 mM
[2]; 0.13 μM, 24 hours
  % Cytoxicity: 15%
[2]; 0.13 μM, 48 hours
  % Cytoxicity: 5%
[2]; 0.13 μM, 72 hours
  % Cytoxicity: 13%
[2]; 0.25 μM, 24 hours
  % Cytoxicity: 10%
[2]; 0.25 μM, 48 hours
  % Cytoxicity: 7%
[2]; 0.25 μM, 72 hours
  % Cytoxicity: 50%
[2]; 2.5 μM, 24 hours
  % Cytoxicity: 15%
[2]; 2.5 μM, 48 hours
  % Cytoxicity: 55%
[2]; 2.5 μM, 72 hours
  % Cytoxicity: 71%
[2]; 10 μM, 24 hours
  % Cytoxicity: 23%
[2]; 10 μM, 48 hours
  % Cytoxicity: 64%
[2]; 10 μM, 72 hours
  % Cytoxicity: 77%
[2]
  concentration inducing / required to initiate cell death: 0.25 µM
[5]
  induction of apoptotic cell death (Annexin V): induction of apoptotic cell death
[3]; 5 uM
  survival of fibrocytes versus tumour cells in mixed culture: fibrocytes survive whilst tumour cells round off as apoptotic bodies
[4]; 0.13 μM, 24 hours
  % Cytoxicity: 3%
[4]; 0.13 μM, 48 hours
  % Cytoxicity: −37%
[4]; 0.13 μM, 72 hours
  % Cytoxicity: 13%
[4]; 0.25 μM, 24 hours
  % Cytoxicity: 49%
[4]; 0.25 μM, 48 hours
  % Cytoxicity: 68%
[4]; 0.25 μM, 72 hours
  % Cytoxicity: 80%
[4]; 2.5 μM, 24 hours
  % Cytoxicity: 51%
[4]; 2.5 μM, 48 hours
  % Cytoxicity: 70%
[4]; 2.5 μM, 72 hours
  % Cytoxicity: 78%
[4]; 10 μM, 24 hours
  % Cytoxicity: 45%
[4]; 10 μM, 48 hours
  % Cytoxicity: 67%
[4]; 10 μM, 72 hours
  % Cytoxicity: 78%
[4]
  concentration as low as which high cell death is induced: 0.25 µM
